Our source for the T/C values is PubChem BioAssay AID268 (DTP/NCI, 2004).

In the experiment the test system is CD2F1 mice, P1798 lymphosarcoma sc, tumor weight T/C. The experiment is described as follows: NCI In Vivo Anticancer Drug Screen. Data for tumor model P1798 Lymphosarcoma (subcutaneous) in CD2F1 (CDF1) mice. As to conditions: endpoint: mean tumor weight, higher = larger tumour. How it is done: The antitumor activity of compounds was measured in mice bearing transplantable tumors. Survival or tumor size were measured and the results are expressed as the measurement made in the treated group (T) divided by the measurement made in the vehicle treated control group (C). The tumor model used in this assay is P1798 Lymphosarcoma (subcutaneous) in CD2F1 (CDF1) mice

Values joined by “and” are separate entries in the source; they are usually repeats but may differ in a detail not shown here. Identical values can stand only once.

As for `COc1ccc2c(c1)CC[C@@H]1[C@@H]2CC[C@@]2(C)[C@H]1CC[C@@]2(O)C(F)=C(F)F`, the T/C runs as follows: (dose: 111.0 mg/kg/injection, schedule: Q01DX010 (sc), vehicle: steriod suspending solution) 12 % of control; (dose: 167.0 mg/kg/injection, schedule: Q01DX010 (sc), vehicle: steriod suspending solution) 9 % of control; (dose: 250.0 mg/kg/injection, schedule: Q01DX010 (sc), vehicle: steriod suspending solution) 10 % of control; (dose: 375.0 mg/kg/injection, schedule: Q01DX010 (sc), vehicle: steriod suspending solution) 8 % of control.

For the molecule `Oc1cc(CN(CCCl)CCCl)c(O)cc1CN(CCCl)CCCl`, the T/C runs as follows: (dose: 0.63 mg/kg/injection, schedule: Q01DX010 (ip), vehicle: saline) 71 % of control and 86 % of control; (dose: 1.25 mg/kg/injection, schedule: Q01DX010 (ip), vehicle: saline) 64 % of control and 88 % of control; (dose: 2.5 mg/kg/injection, schedule: Q01DX010 (ip), vehicle: saline) 42 % of control and 64 % of control.

Consider `Nc1ncnc2[nH]ncc12`, for which the T/C (dose: 1.5 mg/kg/injection, schedule: Q01DX010 (ip), vehicle: saline) is 84 % of control and 88 % of control; the T/C (dose: 3.0 mg/kg/injection, schedule: Q01DX010 (ip), vehicle: saline) was 73 % of control and 88 % of control; the T/C (dose: 12.0 mg/kg/injection, schedule: Q01DX010 (ip), vehicle: saline) was 43 % of control.

For `O[C@H](CN1CC1)[C@@H](O)CN1CC1`, the T/C is, setting by setting: (dose: 62.5 micrograms/kg/injection, schedule: Q01DX010 (ip), vehicle: saline) 76 % of control; (dose: 125.0 micrograms/kg/injection, schedule: Q01DX010 (ip), vehicle: saline) 62 % of control; (dose: 250.0 micrograms/kg/injection, schedule: Q01DX010 (ip), vehicle: saline) 45 % of control; (dose: 500.0 micrograms/kg/injection, schedule: Q01DX010 (ip), vehicle: saline) 31 % of control.

`C[C@@H]1C[C@@]2(C)[C@@H](CC[C@@H]3[C@@H]2CC[C@]2(C)[C@@H](O)CC[C@@H]32)CC1=O`: the T/C (dose: 12.5 mg/kg/injection, schedule: Q01DX010 (sc), vehicle: steriod suspending solution) is 118 % of control and 124 % of control; the T/C (dose: 25.0 mg/kg/injection, schedule: Q01DX010 (sc), vehicle: steriod suspending solution) is 100 % of control and 107 % of control; the T/C (dose: 50.0 mg/kg/injection, schedule: Q01DX010 (sc), vehicle: steriod suspending solution) is 101 % of control and 111 % of control; the T/C (dose: 100.0 mg/kg/injection, schedule: Q01DX010 (sc), vehicle: steriod suspending solution) was 109 % of control and 121 % of control.

Turning to `NC(=O)NO`, the T/C is 60 % of control (dose: 60.0 mg/kg/injection, schedule: Q01DX010 (ip), vehicle: saline); 54 % of control (dose: 90.0 mg/kg/injection, schedule: Q01DX010 (ip), vehicle: saline); 39 % of control (dose: 135.0 mg/kg/injection, schedule: Q01DX010 (ip), vehicle: saline); 12 % of control (dose: 200.0 mg/kg/injection, schedule: Q01DX010 (ip), vehicle: saline).

For `CN(C)N=Nc1cccc([N+](=O)[O-])c1`, the T/C by setting is: (dose: 55.0 mg/kg/injection, schedule: Q01DX011 (ip), vehicle: saline) 82 % of control; (dose: 80.0 mg/kg/injection, schedule: Q01DX011 (ip), vehicle: saline) 188 % of control; (dose: 120.0 mg/kg/injection, schedule: Q01DX011 (ip), vehicle: saline) 89 % of control; (dose: 178.0 mg/kg/injection, schedule: Q01DX010 (ip), vehicle: saline) 49 % of control; (dose: 178.0 mg/kg/injection, schedule: Q01DX011 (ip), vehicle: saline) 113 % of control; (dose: 267.0 mg/kg/injection, schedule: Q01DX010 (ip), vehicle: saline) 74 % of control.
